What was measured:
Format in all cases: cell-based, human
[1] = test system: ERK phosphorylation; experiment: 96-well FCB drug screen in Jurkat cells: T-cell receptor-mediated ERK phosphorylation; conditions: 20 μM, 45 min before stimulation with anti-CD3, anti-CD28 and IFN-γ for 5 min
Description: (§1) FIG. 5. Use of FCB in drug screening platforms. […] (a) Layout of screening experiment. Jurkat cells were treated with 70 known small-molecule kinase or phosphatase inhibitors (20 μM), Jak inhibitor I (2 μM) or U0126 (20 μM) for 45 min before stimulation with 5 μg/ml anti-CD3 and anti-CD28 and 10 ng/ml IFN-γ for 5 min. (b) FCB setup for barcoding of 96-well plate. After fixation, cells were barcoded with Alexa 700-NHS (0, 0.06, 0.25 or 1 μg/ml) to delineate the four quadrants of the 96-well plate. Each quadrant was subdivided into four rows labeled with Pacific Blue-NHS (0, 0.04, 0.2 or 1 μg/ml) and six columns labeled with Alexa 488-NHS (0, 0.02, 0.06, 0.18, 0.5 or 1.5 μg/ml). Shown are pseudocolor FACS plots of the actual gating scheme used to deconvolute the samples in quadrant 4, row D (bottom right six samples in the plate). […] Wells with black triangles were excluded from the analysis due to high fluorescence of the drug in the phospho-protein fluorescence channels. Colored squares are drawn over wells analyzed in d. […]
(§2) Because most cell-based high-throughput screens use 96-well microtiter plates, we next addressed the question whether the technique could be adapted to a 96-well plate. […] We also calculated the Z′ factor from these samples, and it was 0.71 for Stat1 and 0.69 for ERK, indicating robust assay performance. […]

[2] = test system: Stat1 phosphorylation; experiment: 96-well FCB drug screen in Jurkat cells: Stat1 phosphorylation induced by IFN-γ; conditions: 20 μM, 45 min before stimulation with anti-CD3, anti-CD28 and IFN-γ for 5 min
Description: as §1, §2

[3] = test system: Stat1 and ERK phosphorylation; experiment: Titration of four screening hits in Jurkat cells using six-sample FCB (pStat1, pERK); conditions: 30 min before IFN-γ (10 ng/ml) and anti-CD3/28 (5 μg/ml each)
Description: FIG. 8. Detailed titration of four hits from Jurkat drug screening experiment (FIG. 5). a) Four compounds: Bay11-7082, Indirubin-3-monoxime, PP2, and ZM449829 were added to Jurkat cells at different concentrations for 30 min prior to stimulation with IFN-γ (10 ng/ml) and anti-CD3/28 (5 μg/ml each). The cells were fixed and permeabilized, then stained with pStat1 Ax647 and pERK Ax488 antibodies. Percent inhibition of phosphorylation was plotted against concentration of drugs and fitted with a logistic regression curve to obtain IC50 values. Numbers in the top right of each plot are the IC50 value in μM units. b) Lysates were prepared from the same cells used for phospho flow and analyzed by western blot with pStat1 and pERK antibodies. Drugs were applied at 20 μM (same concentration as initial screen) for western blot analysis.
Because a few of these hits were unexpected, we performed titration experiments using six-sample FCB on four of the compounds to validate the results (FIG. 8).
We calculated fold change of phosphorylation upon stimulation by dividing median fluorescence intensity (MFI) of stimulated samples by the MFI of unstimulated samples: FC=MFIstim/MFIunstim. For heat map analysis, FC was converted to log2 values to enhance visualization and so that samples showing no change have a value of zero. To measure drug activity, we calculated percent inhibition as follows: Percent Inhibition=1−((MFItreated ? MFIunstim)/(MFIstim ? MFIunstim)), where “treated” denotes drug treated (and stimulated) samples, “stim” denotes control stimulated (non drug treated) samples, and “unstim” denotes control unstimulated (non drug treated) samples. We calculated Z′-factor from control stimulated and unstimulated samples by the following: Z′-factor=1 ? ((3[…]SDstim 3[…]SDunstim)/(meanstim ? meanunstim)), where “SD” denotes standard deviation of the mean, and “mean” denotes the mean of either stimulated or unstimulated MFI values. Z′-factor is an indication of the robustness and suitability of an assay for high throughput screening, with values from 0.5 to 1 indicating an excellent assay, 0 to 0.5 indicating a usable assay, and less than 0 indicating the assay has too much noise or inadequate dynamic range.

Question: For `Cc1ccc(S(=O)(=O)/C=C/C#N)cc1` [Bay11-7082], which “inhibition of ERK phosphorylation” value [1] is on record?
Answer: 50%

Question: What about the “inhibition of Stat1 phosphorylation” value [2] of the same compound?
Answer: inhibited Stat1 phosphorylation potently

Question: And the “selectivity between ERK and Stat1 phosphorylation” value [3]?
Answer: little selectivity

Reference: US8003312B2, “Multiplex cellular assays using detectable cell barcodes” (The Board of Trustees of the Leland Stanford Junior …, priority 2007, dated 2011)
